Experiment: in vivo
Settings: dog, plasma
Procedure: (§1) Supplementation with casein hydrolysate was evaluated in a dog dialysis model. Two dogs were dialyzed: a control animal underwent four hours of standard hemodialysis. The second animal was dialyzed with dialysate enriched with vitamin-free casein acid hydrolysate under otherwise identical conditions. The dogs were anesthetized and ventilated; venous access for dialysis was achieved via two peripheral venous lines, right femoral and left external jugular. A routine, bicarbonate-based dialysis solution, Centrisol™, was used with both animals and diluted with filtered water by the hemodialysis machine to the appropriate concentration. […] The animals were dialyzed for four hours with a blood flow rate of 300 ml/min and a dialysate flow rate of 500 ml/min. Plasma and dialysate samples were from both animals at t=0 and t=4 hours were analyzed for amino acid content. Additional samples were taken from the serum post-filter and from the dialysate immediately pre-filter.

SMILES	concentration at 0 h [µM]	concentration at 4 h [µM]
O=C(O)[C@@H]1CCCN1 [proline]	336	428
N[C@@H](Cc1c[nH]c2ccccc12)C(=O)O [tryptophan]	52	52
NCCCC[C@H](N)C(=O)O [lysine]	98	198
NCC(=O)O [glycine]	306	260
CC[C@H](C)[C@H](N)C(=O)O [isoleucine]	46	138
C[C@@H](O)[C@H](N)C(=O)O [threonine]	108	128
CC(C)C[C@H](N)C(=O)O [leucine]	126	290
CSCC[C@H](N)C(=O)O [methionine]	44	86
C[C@H](N)C(=O)O [alanine]	658	712
N[C@@H](Cc1ccccc1)C(=O)O [phenylalanine]	34	82
CC(C)[C@H](N)C(=O)O [valine]	118	242
N[C@@H](Cc1c[nH]cn1)C(=O)O [histidine]	68	88

The remaining lines, values ahead:

concentration at 0 h [µM]	concentration at 4 h [µM]	SMILES
2	12	N[C@@H](CC(=O)O)C(=O)O [aspartate]
132	148	N=C(N)NCCC[C@H](N)C(=O)O [arginine]
154	154	N[C@@H](CO)C(=O)O [serine]
8	12	N[C@@H](CS)C(=O)O [cysteine]
28	48	N[C@@H](Cc1ccc(O)cc1)C(=O)O [tyrosine]

Experiment: dog dialysis model: hemodialysis with casein hydrolysate-enriched dialysate, plasma amino acid content;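 further: anesthetized dogs on 4 h hemodialysis with bicarbonate dialysate, one enriched with vitamin-free casein acid hydrolysate, control animal on standard dialysis, plasma amino acids measured at 0 and 4 h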
Settings: casein group, over the course of dialysis
Procedure: as §1

direction of change of plasma concentration of the amino acid (in words)	SMILES
decreased	NCC(=O)O [glycine]
remained the same concentration	N[C@@H](CO)C(=O)O [serine]
